In brackets after ≈: the same amount, converted by molar mass.
Tests used:
[1] = DPPH free radical scavenging activity assay
Method: The DPPH radical scavenging activity assay has been performed according to the method of Blois et al. with minor modifications (Blois [1958]). Butylated Hydroxy Toluene (BHT), Butylated Hydroxy Anisole (BHA), and α‐TOC (Tocopherol) were also assayed as standards for comparison.

[2] = ABTS cation radical decolorization activity; conditions: footnote a: given as IC50
Text: The procedure was followed from the literature (Miller et al. [1993]) and the measurements at 734 nm were read for each concentration relative to a blank absorbance (DMSO). BHA, BHT, and ‐TOC were used as standards. The obtained values were compared to the standards.

[3] = CUPRAC cupric ion‐reducing antioxidant capacity; conditions: absorbance 450 nm after 30 min
Method: The antioxidant capacity assay to identify the reductive efficiencies of the essential oil for Cu metal was performed according to the method reported in the literature (Apak et al. [2005]). The absorbances were measured at 450 nm after 30 min. BHA, BHT, and α‐TOC were used as standards.

[4] = tested on: four yeast strains; design: method as in Kyung and Fleming [1997]; conditions: ref Kyung and Fleming [1997]; cited from earlier work
[5] = tested on: various bacterial strains; design: method as in Kyung and Fleming [1997]; conditions: ref Kyung and Fleming [1997]; cited from earlier work
[6] = molecular target: T1, Acetylcholinesterase (AChE) (Electrophorus electricus, UniProt O42275); design: method as in Ryan and Bryan [1988]; conditions: ref Ryan and Bryan [1988]; cited from earlier work
T1 construct: purchased Sigma C3389
T1 sequence (O42275 24-633): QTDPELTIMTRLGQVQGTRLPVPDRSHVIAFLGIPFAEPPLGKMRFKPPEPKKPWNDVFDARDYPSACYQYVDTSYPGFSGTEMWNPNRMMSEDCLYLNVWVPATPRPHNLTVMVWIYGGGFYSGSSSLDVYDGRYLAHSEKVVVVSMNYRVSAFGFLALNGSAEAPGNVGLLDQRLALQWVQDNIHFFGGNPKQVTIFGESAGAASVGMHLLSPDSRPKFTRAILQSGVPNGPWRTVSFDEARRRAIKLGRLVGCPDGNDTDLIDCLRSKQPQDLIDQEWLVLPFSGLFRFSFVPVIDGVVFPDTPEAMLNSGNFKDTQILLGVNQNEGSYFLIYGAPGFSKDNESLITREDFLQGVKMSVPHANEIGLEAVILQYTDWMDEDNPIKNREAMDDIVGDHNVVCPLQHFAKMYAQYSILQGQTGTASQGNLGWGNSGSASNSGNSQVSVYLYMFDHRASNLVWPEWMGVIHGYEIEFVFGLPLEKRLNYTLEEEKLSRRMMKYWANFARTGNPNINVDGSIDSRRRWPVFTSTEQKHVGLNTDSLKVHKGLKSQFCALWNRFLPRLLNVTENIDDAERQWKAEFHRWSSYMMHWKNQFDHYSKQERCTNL

| SMILES | IC50 values DPPH free radical [1] [µg/mL] | A 0.5 values ABTS cation radical [2] [µg/mL] | A 0.5 values CUPRAC [3] [µg/mL] | MIC [4] [ppm] | MIC [5] [ppm] | AChE inhibition [6] |
| --- | --- | --- | --- | --- | --- | --- |
| COc1ccc(O)c(C(C)(C)C)c1 [BHA, Butylated Hydroxy Anisole] | 3.22 ± 0.08 (≈ 17.9 µM) | 2.74 ± 0.03 | 4.14 ± 0.17 | – | – | – |
| Cc1cc(C(C)(C)C)c(O)c(C(C)(C)C)c1 [BHT, Butylated Hydroxy Toluene] | 16.71 ± 0.80 (≈ 75.8 µM) | 4.44 ± 0.30 | 3.93 ± 0.24 | – | – | – |
| CSSSC [Compound 2, Dimethyl trisulfide] | – | – | – | 20 | 200 | – |
| C=CC(C)(O)CCC=C(C)C (stereo not drawn) [Compound 6, Linalool] | – | – | – | – | – | no significant inhibition |
| Cc1c(C)c2c(c(C)c1O)CC[C@@](C)(CCC[C@H](C)CCC[C@H](C)CCCC(C)C)O2 [α‐TOC, Tocopherol] | 1.41 ± 0.04 (≈ 3.27 µM) | 8.48 ± 0.43 | 13.64 ± 0.32 | – | – | – |

Reference: PMC12227661, “Shedding Light on the Phytochemical and Biological Fingerprints of Fibigia clypeata (L.) Medik Essential Oil as a Pharmacotherapeutic Agent” (Food Science & Nutrition, 2025)
